Reference: paper PMC6352943, “Novel pyrazolo[3,4-d]pyrimidines: design, synthesis, anticancer activity, dual EGFR/ErbB2 receptor tyrosine kinases inhibitory activity, effects on cell cycle profile and caspase-3-mediated apoptosis” (Journal of Enzyme Inhibition and Medicinal Chemistry, 2019)

Legend:
Assay in all cases: NCI 60 cell line single dose screen (SRB)
Assay type in all cases: cell-based
[1] = test system: NCI-H522; details: Homo sapiens; NCI-H522 (non-small cell lung cancer), single dose 10^−5 M, 48 h; read-out: Growth inhibition percentage
Procedure: (§1) Anticancer activity screening of the newly synthesised compounds was measured in vitro utilising 60 different human tumour cell lines provided by US National Cancer Institute according to previously reported standard procedure[27–29] as follows: Cells are inoculated into 96-well microtitre plates in 100 ml. After cell inoculation, the microtitre plates are incubated at 37 °C, 5% CO2, 95% air and 100% relative humidity for 24 h prior to addition of experimental compounds. After 24 h, two plates of each cell line are fixed in situ with TCA, to represent a measurement of the cell population for each cell line at the time of drug addition (Tz). Experimental compounds are solubilised in dimethyl sulphoxide at 400-fold the desired final maximum test concentration and stored frozen prior to use. At the time of compound addition, an aliquot of frozen concentrate is thawed and diluted to twice the desired final maximum test concentration with complete medium containing […] gentamicin. Aliquots of […] of the compounds dilutions are added to the appropriate microtitre wells already containing 100 ml of medium, resulting in the required final compound concentration. Following compound addition, the plates are incubated for an additional 48 h at 37 °C, 5% CO2, 95% air, and 100% relative humidity. For adherent cells, the assay is terminated by the addition of cold trichloroacetic acid (TCA). Cells are fixed in situ by the gentle addition of 50 ml of cold 50% (w/v) TCA (final concentration, 10% TCA) and incubated for 60 min at 4 °C. The supernatant is discarded, and the plates are washed five times with tap water and air-dried. Sulphorhodamine B (SRB) solution (100 ml) at 0.4% (w/v) in 1% acetic acid is added to each well, and plates are incubated for 10 min at room temperature. After staining, unbound dye is removed by washing five times with 1% acetic acid and the plates are air-dried. Bound stain is subsequently solubilised with 10 mM trizma base, and the absorbance is read on an automated plate reader at a wavelength of 515 nm. For suspension cells, the methodology is the same except that the assay is terminated by fixing settled cells at the bottom of the wells by gently adding 50 ml of 80% TCA (final concentration, 16% TCA). Using the absorbance measurements [time zero, (Tz), control growth, (C), and test growth in the presence of compound (Ti)], the percentage growth is calculated for each compound. Percentage growth inhibition is calculated as: [(Ti – Tz)/(C – Tz)] x 100 for concentrations for which Ti >/=Tz. [(Ti – Tz)/Tz] x 100 for concentrations for which Ti < Tz.

[2] = test system: SN12C; details: Homo sapiens; SN12C (renal cancer), single dose 10^−5 M, 48 h; read-out: Growth inhibition percentage
Procedure: as §1

[3] = test system: EKVX; details: Homo sapiens; EKVX (non-small cell lung cancer), single dose 10^−5 M, 48 h; read-out: Growth inhibition percentage
Procedure: as §1

[4] = test system: K-562; details: Homo sapiens, K562; K-562 (leukemia), single dose 10^−5 M, 48 h; read-out: Growth inhibition percentage
Procedure: as §1

[5] = test system: BT-549; details: Homo sapiens; BT-549 (breast cancer), single dose 10^−5 M, 48 h; read-out: Growth inhibition percentage
Procedure: as §1

[6] = test system: HS 578T; details: Homo sapiens; HS 578T (breast cancer), single dose 10^−5 M, 48 h; read-out: Growth inhibition percentage
Procedure: as §1

[7] = test system: TK-10; details: Homo sapiens; TK-10 (renal cancer), single dose 10^−5 M, 48 h; read-out: Growth inhibition percentage
Procedure: as §1

[8] = test system: SK-MEL-28; details: Homo sapiens; SK-MEL-28 (melanoma), single dose 10^−5 M, 48 h; read-out: Growth inhibition percentage
Procedure: as §1

[9] = test system: SNB-75; details: Homo sapiens; SNB-75 (CNS cancer), single dose 10^−5 M, 48 h; read-out: Growth inhibition percentage
Procedure: as §1

[10] = test system: MOLT-4; details: Homo sapiens; MOLT-4 (leukemia), single dose 10^−5 M, 48 h; read-out: Growth inhibition percentage
Procedure: as §1

[11] = test system: SF-593; details: Homo sapiens, SF-593 (CNS cancer), single dose 10^−5 M, 48 h, read-out: Growth inhibition percentage
Procedure: as §1

[12] = test system: SR; details: Homo sapiens; SR (leukemia), single dose 10^−5 M, 48 h; read-out: Growth inhibition percentage
Procedure: as §1

[13] = test system: NCI-H23; details: Homo sapiens; NCI-H23 (non-small cell lung cancer), single dose 10^−5 M, 48 h; read-out: Growth inhibition percentage
Procedure: as §1

[14] = test system: OVCAR-4; details: Homo sapiens; OVCAR-4 (ovarian cancer), single dose 10^−5 M, 48 h; read-out: Growth inhibition percentage
Procedure: as §1

[15] = test system: U251; details: Homo sapiens, U-251; U251 (CNS cancer), single dose 10^−5 M, 48 h; read-out: Growth inhibition percentage
Procedure: as §1

[16] = test system: NCI-H226; details: Homo sapiens; NCI-H226 (non-small cell lung cancer), single dose 10^−5 M, 48 h; read-out: Growth inhibition percentage
Procedure: as §1

[17] = test system: M14; details: Homo sapiens; M14 (melanoma), single dose 10^−5 M, 48 h; read-out: Growth inhibition percentage
Procedure: as §1

[18] = test system: SF-268; details: Homo sapiens; SF-268 (CNS cancer), single dose 10^−5 M, 48 h; read-out: Growth inhibition percentage
Procedure: as §1

[19] = test system: RXF 393; details: Homo sapiens; RXF 393 (renal cancer), single dose 10^−5 M, 48 h; read-out: Growth inhibition percentage
Procedure: as §1

[20] = test system: HOP-92; details: Homo sapiens; HOP-92 (non-small cell lung cancer), single dose 10^−5 M, 48 h; read-out: Growth inhibition percentage
Procedure: as §1

[21] = test system: KM12; details: Homo sapiens; KM12 (colon cancer), single dose 10^−5 M, 48 h; read-out: Growth inhibition percentage
Procedure: as §1

Row | SMILES | inhibition at 10 µM [1] | inhibition at 10 µM [2] | inhibition at 10 µM [3] | inhibition at 10 µM [4] | inhibition at 10 µM [5] | inhibition at 10 µM [6] | inhibition at 10 µM [7] | inhibition at 10 µM [8] | inhibition at 10 µM [9] | inhibition at 10 µM [10] | inhibition at 10 µM [11] | inhibition at 10 µM [12] | inhibition at 10 µM [13] | inhibition at 10 µM [14] | inhibition at 10 µM [15] | inhibition at 10 µM [16] | inhibition at 10 µM [17] | inhibition at 10 µM [18] | inhibition at 10 µM [19] | inhibition at 10 µM [20] | also measured
1 | Cc1nn(-c2ccc(F)cc2)c2nc[nH]c(=O)c12 [Compound 3, 1–(4-Fluorophenyl)-3-methyl-1H-pyrazolo[3,4-d]pyrimidin-4(5H)-one] | 4.92% | -2.5% | 36.2% | 1.69% | -3.59% | 0.13% | -3.17% | -14.1% | 0.29% | 3.3% | -0.99% | -1.58% | 4.09% | -8.19% | -1.7% | -9.27% | -7.65% | -1.71% | -11.4% | 10.3% | inhibition at 10 µM [21]: 1.48%
2 | Cc1nn(-c2ccc(F)cc2)c2ncnc(N)c12 [Compound 4, 1–(4-Fluorophenyl)-3-methyl-1H-pyrazolo[3,4-d]pyrimidin-4-amine] | 6.49% | -1.4% | 19.1% | 1.98% | 9.79% | -4.94% | -4.14% | -3.55% | 8.18% | 0.58% | -1.06% | 3.35% | 4.73% | -4.38% | -7.56% | -7.4% | -3.62% | 3.71% | -17.3% | -1.54% | inhibition at 10 µM [21]: 3.5%
3 | Cc1nn(-c2ccc(F)cc2)c2nc(N)nc(N)c12 [Compound 5, 1–(4-Fluorophenyl)-3-methyl-1H-pyrazolo[3,4-d]pyrimidine-4,6-diamine] | 2.08% | -2.74% | 6.25% | -11.9% | -17.4% | -3.27% | -13% | -4.89% | 5.33% | -0.48% | 2.81% | -1.68% | 11.8% | 1.28% | -6.63% | -8.08% | -2.93% | -2.3% | -13% | 1.64% | inhibition at 10 µM [21]: 1.24%
4 | Cc1nn(-c2ccc(F)cc2)c2ncnc(Cl)c12 [Compound 6, 4-Chloro-1–(4-fluorophenyl)-3-methyl-1H-pyrazolo[3,4-d]pyrimidine] | 59% | 1.02% | 9.08% | 15.4% | -11.5% | 4.54% | -23% | -4.92% | 6.36% | 13.8% | -7.81% | 14.4% | 7.86% | -0.8% | 5.15% | 15.1% | 5.89% | -1.16% | -3.61% | 7.91% | inhibition at 10 µM [21]: 0.99%
5 | Cc1ccc(Nc2ncnc3c2c(C)nn3-c2ccc(F)cc2)cc1 [Compound 7c, 1–(4-Fluorophenyl)-3-methyl-N-(p-tolyl)-1H-pyrazolo[3,4-d]-pyrimidin-4-amine] | 11% | 48.4% | 3.39% | 0.26% | -8.83% | 0.7% | 9.04% | -11.1% | -5.2% | 1.83% | -1.94% | 6.02% | 4.63% | -3.91% | 2.65% | -10.2% | 0.75% | 1.06% | -13.7% | 3.79% | inhibition at 10 µM [21]: -1.11%
6 | Cc1nn(-c2ccc(F)cc2)c2ncnc(Nc3ccc(F)c(Cl)c3)c12 [Compound 7d, N-(3-Chloro-4-fluorophenyl)-1–(4-fluorophenyl)-3-methyl-1H-pyrazolo[3,4-d] pyrimidin-4-amine] | 10.4% | 21.5% | 14.5% | 1.78% | -4.84% | 21.5% | -6.68% | -4.63% | 25% | 4.27% | 22.6% | 25.4% | 7.53% | 53.1% | 24% | 62.9% | 1.01% | 3.94% | -0.39% | 22.8% | inhibition at 10 µM [21]: 1.96%
7 | Cc1nn(-c2ccc(F)cc2)c2ncnc(N3CCOCC3)c12 [Compound 8a, 1–(4-Fluorophenyl)-3-methyl-4-morpholino-1H-pyrazolo[3,4-d]pyrimidine] | 8.03% | 1.12% | 19.5% | -3.68% | 3.96% | -4.78% | 9.75% | -12.6% | 0.92% | 5.79% | -8.46% | 1.18% | 0.28% | -10.7% | -1.7% | -8.48% | -4.47% | -0.79% | -15.7% | 9.27% | inhibition at 10 µM [21]: 0.04%
